{"source": "ChEMBL document CHEMBL2203238", "about": "“Hit to Lead optimization of a novel class of squarate-containing polo-like kinases inhibitors” (Bioorg Med Chem Lett, 2012)", "key": {"[1]": {"molecular_target": "Receptor tyrosine-protein kinase erbB-2 (Homo sapiens, UniProt P04626)", "sequence (P04626 whole entry)": "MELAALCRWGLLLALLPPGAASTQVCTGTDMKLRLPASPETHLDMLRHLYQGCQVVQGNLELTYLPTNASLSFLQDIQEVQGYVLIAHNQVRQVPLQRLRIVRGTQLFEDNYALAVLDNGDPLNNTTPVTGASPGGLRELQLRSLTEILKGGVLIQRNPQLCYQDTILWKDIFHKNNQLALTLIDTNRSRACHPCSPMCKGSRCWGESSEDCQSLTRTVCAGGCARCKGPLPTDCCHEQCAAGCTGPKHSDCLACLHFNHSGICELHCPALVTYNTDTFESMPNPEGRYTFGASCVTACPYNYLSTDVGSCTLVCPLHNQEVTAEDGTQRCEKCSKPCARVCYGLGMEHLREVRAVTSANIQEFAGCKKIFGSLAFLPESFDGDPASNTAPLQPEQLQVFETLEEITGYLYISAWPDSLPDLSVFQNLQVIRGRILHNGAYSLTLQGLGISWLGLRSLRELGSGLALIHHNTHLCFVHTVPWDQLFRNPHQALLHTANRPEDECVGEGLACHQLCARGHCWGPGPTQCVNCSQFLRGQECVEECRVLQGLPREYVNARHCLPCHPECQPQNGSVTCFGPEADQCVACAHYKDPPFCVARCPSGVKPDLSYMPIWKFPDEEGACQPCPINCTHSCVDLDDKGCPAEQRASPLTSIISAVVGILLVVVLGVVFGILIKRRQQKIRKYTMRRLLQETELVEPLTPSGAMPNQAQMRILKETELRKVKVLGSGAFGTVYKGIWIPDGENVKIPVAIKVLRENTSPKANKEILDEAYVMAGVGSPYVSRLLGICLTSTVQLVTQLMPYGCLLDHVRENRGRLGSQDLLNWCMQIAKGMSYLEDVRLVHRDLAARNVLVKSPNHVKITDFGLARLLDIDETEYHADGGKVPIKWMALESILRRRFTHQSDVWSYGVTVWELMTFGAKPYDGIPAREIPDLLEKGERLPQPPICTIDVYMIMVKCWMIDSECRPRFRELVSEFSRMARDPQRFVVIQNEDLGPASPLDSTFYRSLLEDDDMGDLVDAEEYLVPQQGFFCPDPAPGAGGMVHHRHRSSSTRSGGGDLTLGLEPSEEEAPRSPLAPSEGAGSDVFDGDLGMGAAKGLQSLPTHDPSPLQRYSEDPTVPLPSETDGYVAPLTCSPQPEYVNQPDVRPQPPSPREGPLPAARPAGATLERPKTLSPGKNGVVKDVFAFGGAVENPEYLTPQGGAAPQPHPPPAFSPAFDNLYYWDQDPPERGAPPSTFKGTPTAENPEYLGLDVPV", "assay": "Inhibition of recombinant ERBB2 after 1 hr by scintillation counter analysis in presence of gamma-[33P]ATP"}, "[2]": {"molecular_target": "RAC-beta serine/threonine-protein kinase (Homo sapiens, UniProt P31751)", "assay": "Inhibition of recombinant AKT2 after 1 hr by scintillation counter analysis in presence of gamma-[33P]ATP"}, "[3]": {"molecular_target": "Insulin-like growth factor 1 receptor (Homo sapiens, UniProt P08069)", "assay": "Inhibition of recombinant IGF1R after 1 hr by scintillation counter analysis in presence of gamma-[33P]ATP"}, "[4]": {"molecular_target": "5'-AMP-activated protein kinase subunit beta-1 (Homo sapiens, UniProt Q9Y478)", "sequence (Q9Y478 whole entry)": "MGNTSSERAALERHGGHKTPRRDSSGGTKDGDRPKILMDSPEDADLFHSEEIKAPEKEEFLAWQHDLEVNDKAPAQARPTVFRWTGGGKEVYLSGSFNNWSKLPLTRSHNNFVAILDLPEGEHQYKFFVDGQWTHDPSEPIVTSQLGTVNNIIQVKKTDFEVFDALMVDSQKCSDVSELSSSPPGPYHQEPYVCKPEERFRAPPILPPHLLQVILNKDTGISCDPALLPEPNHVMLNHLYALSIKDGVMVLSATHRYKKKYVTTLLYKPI", "assay": "Inhibition of recombinant AMPK after 1 hr by scintillation counter analysis in presence of gamma-[33P]ATP"}, "[5]": {"molecular_target": "Fibroblast growth factor receptor 3 (Homo sapiens, UniProt P22607)", "sequence (P22607 whole entry)": "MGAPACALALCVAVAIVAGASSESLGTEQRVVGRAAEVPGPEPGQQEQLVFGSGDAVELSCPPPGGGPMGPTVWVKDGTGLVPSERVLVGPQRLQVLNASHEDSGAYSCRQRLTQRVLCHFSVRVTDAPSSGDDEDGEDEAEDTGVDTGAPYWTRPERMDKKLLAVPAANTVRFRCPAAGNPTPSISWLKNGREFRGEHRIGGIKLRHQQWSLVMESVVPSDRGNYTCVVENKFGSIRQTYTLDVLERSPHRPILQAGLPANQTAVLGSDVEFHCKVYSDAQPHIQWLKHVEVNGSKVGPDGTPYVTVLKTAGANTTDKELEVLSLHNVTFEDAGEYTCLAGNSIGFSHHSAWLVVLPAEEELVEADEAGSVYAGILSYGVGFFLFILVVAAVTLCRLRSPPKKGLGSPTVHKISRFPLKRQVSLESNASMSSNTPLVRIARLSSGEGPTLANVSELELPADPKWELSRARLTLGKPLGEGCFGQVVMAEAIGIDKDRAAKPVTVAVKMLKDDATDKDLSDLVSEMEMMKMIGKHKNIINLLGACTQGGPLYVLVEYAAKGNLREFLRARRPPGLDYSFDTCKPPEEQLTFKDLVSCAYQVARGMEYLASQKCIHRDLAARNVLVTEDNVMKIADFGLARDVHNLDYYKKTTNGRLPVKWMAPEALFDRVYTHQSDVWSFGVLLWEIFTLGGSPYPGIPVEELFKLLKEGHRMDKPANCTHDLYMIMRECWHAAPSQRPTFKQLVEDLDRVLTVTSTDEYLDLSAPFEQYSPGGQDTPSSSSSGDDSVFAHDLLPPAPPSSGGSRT", "assay": "Inhibition of recombinant FGFR3 after 1 hr by scintillation counter analysis in presence of gamma-[33P]ATP"}, "[6]": {"molecular_target": "Serine/threonine-protein kinase Sgk1 (Homo sapiens, UniProt O00141)", "assay": "Inhibition of recombinant SGK after 1 hr by scintillation counter analysis in presence of gamma-[33P]ATP"}, "[7]": {"molecular_target": "Macrophage colony-stimulating factor 1 receptor (Homo sapiens, UniProt P07333)", "assay": "Inhibition of recombinant CSF1R after 1 hr by scintillation counter analysis in presence of gamma-[33P]ATP"}, "[8]": {"assay": "Volume of distribution in mouse", "assay_type": "ADME, organism-based", "details": "in vivo"}, "LIM domain kinase 1": {"molecular_target": "LIM domain kinase 1 (Homo sapiens, UniProt P53667)", "assay": "Inhibition of recombinant LIMK1 after 1 hr by scintillation counter analysis in presence of gamma-[33P]ATP"}, "[9]": {"molecular_target": "Serine/threonine-protein kinase D2 (Homo sapiens, UniProt Q9BZL6)", "assay": "Inhibition of recombinant PKD2 after 1 hr by scintillation counter analysis in presence of gamma-[33P]ATP"}, "[10]": {"molecular_target": "Proto-oncogene tyrosine-protein kinase Src (Homo sapiens, UniProt P12931)", "sequence (P12931 2-536 limits assumed)": "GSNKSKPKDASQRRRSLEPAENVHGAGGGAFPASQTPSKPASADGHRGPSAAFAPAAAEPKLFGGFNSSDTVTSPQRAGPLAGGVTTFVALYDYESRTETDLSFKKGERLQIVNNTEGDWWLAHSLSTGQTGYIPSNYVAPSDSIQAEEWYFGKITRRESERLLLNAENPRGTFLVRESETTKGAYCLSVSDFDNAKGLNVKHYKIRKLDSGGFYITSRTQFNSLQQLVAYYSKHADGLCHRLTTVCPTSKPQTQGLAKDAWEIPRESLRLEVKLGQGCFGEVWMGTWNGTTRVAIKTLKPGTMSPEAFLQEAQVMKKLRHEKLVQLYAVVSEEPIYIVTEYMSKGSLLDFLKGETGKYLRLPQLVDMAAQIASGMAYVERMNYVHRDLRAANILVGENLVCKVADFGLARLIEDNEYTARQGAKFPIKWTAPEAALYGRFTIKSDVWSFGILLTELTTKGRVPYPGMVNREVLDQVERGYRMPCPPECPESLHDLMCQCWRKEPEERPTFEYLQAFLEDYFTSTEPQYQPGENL", "assay": "Inhibition of recombinant SRC after 1 hr by scintillation counter analysis in presence of gamma-[33P]ATP"}, "[11]": {"molecular_target": "RAC-gamma serine/threonine-protein kinase (Homo sapiens, UniProt Q9Y243)", "assay": "Inhibition of recombinant AKT3 after 1 hr by scintillation counter analysis in presence of gamma-[33P]ATP"}, "[12]": {"molecular_target": "Serine/threonine-protein kinase PLK1 (Homo sapiens, UniProt P53350)", "assay": "Inhibition of recombinant GST-tagged PLK1 using biotin-ahx-AKMETTFYDDALNASFLPSEKKK-amide as substrate after 30 mins by scintillation counting analysis in presence of gamma-[33P]ATP"}, "[13]": {"molecular_target": "Serine/threonine-protein kinase Nek2 (Homo sapiens, UniProt P51955)", "sequence (P51955 whole entry)": "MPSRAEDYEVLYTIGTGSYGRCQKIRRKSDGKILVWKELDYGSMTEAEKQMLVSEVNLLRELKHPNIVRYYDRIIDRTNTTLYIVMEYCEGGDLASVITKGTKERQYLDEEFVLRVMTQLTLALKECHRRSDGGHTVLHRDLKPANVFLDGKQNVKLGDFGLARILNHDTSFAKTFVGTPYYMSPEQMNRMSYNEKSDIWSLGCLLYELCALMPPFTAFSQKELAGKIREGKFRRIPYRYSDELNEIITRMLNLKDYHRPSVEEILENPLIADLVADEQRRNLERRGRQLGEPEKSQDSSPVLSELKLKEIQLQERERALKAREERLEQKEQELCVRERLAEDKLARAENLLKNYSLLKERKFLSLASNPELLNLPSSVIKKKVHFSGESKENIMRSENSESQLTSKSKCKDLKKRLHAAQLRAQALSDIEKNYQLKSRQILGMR", "assay": "Inhibition of recombinant NEK2 after 1 hr by scintillation counter analysis in presence of gamma-[33P]ATP"}, "[14]": {"molecular_target": "Tyrosine-protein kinase ITK/TSK (Homo sapiens, UniProt Q08881)", "assay": "Inhibition of recombinant ITK after 1 hr by scintillation counter analysis in presence of gamma-[33P]ATP"}, "[15]": {"assay": "Cmax in mouse at 50 mg/kg, po measured at 1 hr", "assay_type": "ADME, organism-based", "set-up": "dose 50 mg/kg, route oral", "details": "in vivo"}, "[16]": {"molecular_target": "BDNF/NT-3 growth factors receptor (Homo sapiens, UniProt Q16620)", "assay": "Inhibition of recombinant TRKB after 1 hr by scintillation counter analysis in presence of gamma-[33P]ATP"}, "[17]": {"molecular_target": "MAP/microtubule affinity-regulating kinase 3 (Homo sapiens, UniProt P27448)", "assay": "Inhibition of recombinant CTAK1 after 1 hr by scintillation counter analysis in presence of gamma-[33P]ATP"}, "[18]": {"assay": "Oral bioavailability in mouse", "assay_type": "ADME, organism-based", "details": "in vivo"}, "[19]": {"molecular_target": "Cell division control protein 42 homolog (Homo sapiens, UniProt P60953)", "sequence (P60953 whole entry)": "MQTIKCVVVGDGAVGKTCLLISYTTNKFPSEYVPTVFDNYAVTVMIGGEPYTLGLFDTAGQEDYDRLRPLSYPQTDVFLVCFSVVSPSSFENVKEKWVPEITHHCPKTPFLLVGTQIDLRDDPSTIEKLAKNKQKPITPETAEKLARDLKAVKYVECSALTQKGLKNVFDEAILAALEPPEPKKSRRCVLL", "assay": "Inhibition of recombinant CDC42 after 1 hr by scintillation counter analysis in presence of gamma-[33P]ATP"}, "[20]": {"molecular_target": "Tyrosine-protein kinase Blk (Homo sapiens, UniProt P51451)", "assay": "Inhibition of recombinant BLK after 1 hr by scintillation counter analysis in presence of gamma-[33P]ATP"}, "[21]": {"molecular_target": "Glycogen synthase kinase-3 alpha (Homo sapiens, UniProt P49840)", "assay": "Inhibition of recombinant GSK3A after 1 hr by scintillation counter analysis in presence of gamma-[33P]ATP"}, "[22]": {"molecular_target": "Casein kinase I isoform delta (Homo sapiens, UniProt P48730)", "assay": "Inhibition of recombinant CK1delta after 1 hr by scintillation counter analysis in presence of gamma-[33P]ATP"}, "[23]": {"molecular_target": "Serine/threonine-protein kinase pim-1 (Homo sapiens, UniProt P11309)", "assay": "Inhibition of recombinant PIM1 after 1 hr by scintillation counter analysis in presence of gamma-[33P]ATP"}, "[24]": {"assay": "Inhibition of recombinant PKA after 1 hr by scintillation counter analysis in presence of gamma-[33P]ATP"}, "[25]": {"assay": "Inhibition of recombinant CK2 after 1 hr by scintillation counter analysis in presence of gamma-[33P]ATP"}, "[26]": {"molecular_target": "Serine/threonine-protein kinase PLK3 (Homo sapiens, UniProt Q9H4B4)", "assay": "Inhibition of recombinant PLK3 after 1 hr by scintillation counter analysis in presence of gamma-[33P]ATP"}, "[27]": {"molecular_target": "Serine/threonine-protein kinase Chk1 (Homo sapiens, UniProt O14757)", "sequence (O14757 whole entry)": "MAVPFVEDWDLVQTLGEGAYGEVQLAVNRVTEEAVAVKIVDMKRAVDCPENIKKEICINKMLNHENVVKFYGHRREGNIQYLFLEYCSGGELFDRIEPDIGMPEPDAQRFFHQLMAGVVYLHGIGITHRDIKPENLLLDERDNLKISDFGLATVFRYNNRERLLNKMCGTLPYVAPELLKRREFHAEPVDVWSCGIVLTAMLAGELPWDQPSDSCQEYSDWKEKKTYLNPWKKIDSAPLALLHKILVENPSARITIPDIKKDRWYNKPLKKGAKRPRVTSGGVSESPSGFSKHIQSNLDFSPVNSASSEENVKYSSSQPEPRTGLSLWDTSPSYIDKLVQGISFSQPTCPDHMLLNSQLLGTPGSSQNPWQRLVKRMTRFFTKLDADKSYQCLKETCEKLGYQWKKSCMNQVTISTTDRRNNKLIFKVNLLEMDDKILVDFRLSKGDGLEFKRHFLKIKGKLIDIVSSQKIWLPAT", "assay": "Inhibition of recombinant CHK1 after 1 hr by scintillation counter analysis in presence of gamma-[33P]ATP"}, "Ephrin type-A receptor 2": {"molecular_target": "Ephrin type-A receptor 2 (Homo sapiens, UniProt P29317)", "sequence (P29317 whole entry)": "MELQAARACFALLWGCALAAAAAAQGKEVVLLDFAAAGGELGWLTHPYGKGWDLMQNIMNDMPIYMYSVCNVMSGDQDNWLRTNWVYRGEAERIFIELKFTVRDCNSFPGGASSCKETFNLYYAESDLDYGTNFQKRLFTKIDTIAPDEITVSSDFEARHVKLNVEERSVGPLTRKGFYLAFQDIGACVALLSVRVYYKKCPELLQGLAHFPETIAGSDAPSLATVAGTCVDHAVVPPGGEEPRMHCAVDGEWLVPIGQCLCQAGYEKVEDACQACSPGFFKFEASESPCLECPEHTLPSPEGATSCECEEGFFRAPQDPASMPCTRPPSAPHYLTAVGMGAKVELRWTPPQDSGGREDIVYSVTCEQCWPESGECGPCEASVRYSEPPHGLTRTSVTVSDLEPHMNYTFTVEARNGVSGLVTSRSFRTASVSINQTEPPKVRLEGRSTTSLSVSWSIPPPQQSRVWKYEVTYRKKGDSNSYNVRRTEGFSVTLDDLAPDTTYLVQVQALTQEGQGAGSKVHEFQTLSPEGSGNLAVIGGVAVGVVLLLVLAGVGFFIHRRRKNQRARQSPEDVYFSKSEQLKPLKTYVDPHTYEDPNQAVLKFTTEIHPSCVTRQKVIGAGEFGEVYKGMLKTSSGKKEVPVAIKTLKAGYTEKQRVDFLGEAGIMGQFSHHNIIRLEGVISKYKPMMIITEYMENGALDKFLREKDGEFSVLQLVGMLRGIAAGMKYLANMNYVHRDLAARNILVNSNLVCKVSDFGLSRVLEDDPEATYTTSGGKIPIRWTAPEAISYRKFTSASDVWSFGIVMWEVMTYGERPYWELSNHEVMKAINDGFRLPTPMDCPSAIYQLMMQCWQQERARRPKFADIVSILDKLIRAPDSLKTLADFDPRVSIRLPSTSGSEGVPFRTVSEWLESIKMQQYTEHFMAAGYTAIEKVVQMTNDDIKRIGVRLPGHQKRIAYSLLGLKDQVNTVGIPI", "assay": "Inhibition of recombinant EPHA2 after 1 hr by scintillation counter analysis in presence of gamma-[33P]ATP"}, "[28]": {"molecular_target": "Mitogen-activated protein kinase 8 (Homo sapiens, UniProt P45983)", "assay": "Inhibition of recombinant JNK1A1 after 1 hr by scintillation counter analysis in presence of gamma-[33P]ATP"}, "[29]": {"molecular_target": "Serine/threonine-protein kinase pim-2 (Homo sapiens, UniProt Q9P1W9)", "assay": "Inhibition of recombinant PIM2 after 1 hr by scintillation counter analysis in presence of gamma-[33P]ATP"}, "[30]": {"molecular_target": "Tyrosine-protein kinase JAK3 (Homo sapiens, UniProt P52333)", "assay": "Inhibition of recombinant JAK3 after 1 hr by scintillation counter analysis in presence of gamma-[33P]ATP"}, "[31]": {"molecular_target": "Tyrosine-protein kinase JAK2 (Homo sapiens, UniProt O60674)", "assay": "Inhibition of recombinant JAK2 after 1 hr by scintillation counter analysis in presence of gamma-[33P]ATP"}, "[32]": {"molecular_target": "Serine/threonine-protein kinase Chk2 (Homo sapiens, UniProt O96017)", "assay": "Inhibition of recombinant CHK2 after 1 hr by scintillation counter analysis in presence of gamma-[33P]ATP"}, "[33]": {"molecular_target": "Dual specificity tyrosine-phosphorylation-regulated kinase 1A (Homo sapiens, UniProt Q13627)", "assay": "Inhibition of recombinant DYRK1A after 1 hr by scintillation counter analysis in presence of gamma-[33P]ATP"}, "[34]": {"molecular_target": "MAP kinase-activated protein kinase 3 (Homo sapiens, UniProt Q16644)", "assay": "Inhibition of recombinant MK3 after 1 hr by scintillation counter analysis in presence of gamma-[33P]ATP"}}, "note": "pKi: −log10 of the molar value.", "data": [{"smiles": "CC(C)(C)Nc1c(Nc2ccnc(Nc3ccc(-c4ccncc4)cc3)n2)c(=O)c1=O", "values": [{"measurement": "pKi", "setting": "[1]", "value": "< 5.85"}, {"measurement": "pKi", "setting": "[2]", "value": "< 5.10"}, {"measurement": "pKi", "setting": "[3]", "value": "< 5.74"}, {"measurement": "pKi", "setting": "[4]", "value": 6.48}, {"measurement": "pKi", "setting": "[5]", "value": 5.85}, {"measurement": "pKi", "setting": "[6]", "value": 6.59}, {"measurement": "pKi", "setting": "[7]", "value": 5.68}, {"measurement": "Vd", "setting": "[8]", "value": 3.7, "unit": "L/kg"}, {"measurement": "pKi", "setting": "LIM domain kinase 1", "value": 6.71}, {"measurement": "pKi", "setting": "[9]", "value": 6.76}, {"measurement": "pKi", "setting": "[10]", "value": "< 5.72"}, {"measurement": "pKi", "setting": "[11]", "value": "< 5.05"}, {"measurement": "pKi", "setting": "[12]", "value": 8.30}, {"measurement": "pKi", "setting": "[13]", "value": "< 5.04"}, {"measurement": "pKi", "setting": "[14]", "value": "< 5.82"}, {"measurement": "Cmax", "setting": "[15]", "value": 5.4, "unit": "µM"}, {"measurement": "pKi", "setting": "[16]", "value": "< 5.35"}, {"measurement": "pKi", "setting": "[17]", "value": 5.32}, {"measurement": "bioavailability", "setting": "[18]", "value": 100, "unit": "%"}, {"measurement": "pKi", "setting": "[19]", "value": "< 5.36"}, {"measurement": "pKi", "setting": "[20]", "value": "< 5.85"}, {"measurement": "pKi", "setting": "[21]", "value": 7.68}, {"measurement": "pKi", "setting": "[22]", "value": "< 5.11"}, {"measurement": "pKi", "setting": "[23]", "value": 5.80}, {"measurement": "pKi", "setting": "[24]", "value": "< 5.12"}, {"measurement": "pKi", "setting": "[25]", "value": 6.56}, {"measurement": "pKi", "setting": "[26]", "value": 8.70}, {"measurement": "pKi", "setting": "[27]", "value": 6.78}, {"measurement": "pKi", "setting": "Ephrin type-A receptor 2", "value": "< 5.55"}, {"measurement": "pKi", "setting": "[28]", "value": "< 5.52"}, {"measurement": "pKi", "setting": "[29]", "value": "< 5.85"}, {"measurement": "pKi", "setting": "[30]", "value": "< 5.77"}, {"measurement": "pKi", "setting": "[31]", "value": 6.04}, {"measurement": "pKi", "setting": "[32]", "value": 7.06}, {"measurement": "pKi", "setting": "[33]", "value": "< 5.17"}, {"measurement": "pKi", "setting": "[34]", "value": "< 5.04"}]}]}
